Literature values, collected in patent EP4026540A1, “A FILM COATED TABLET COMPRISING APIXABAN” (SANOVEL ILAC SANAYI VE TICARET A.S., priority 2021, dated 2022).

Settings: single 10 mg dose

SMILES: COc1ccc(-n2nc(C(N)=O)c3c2C(=O)N(c2ccc(N4CCCCC4=O)cc2)CC3)cc1 [apixaban, 1-(4-methoxyphenyl)-7-oxo-6-[4-(2-oxopiperidin-1-yl)phenyl]-4,5,6,7-tetrahydro-1H-pyrazolo[3,4-c]pyridine-3-carboxamide]
- oral bioavailability: about 50%
